Among the data in patent US20170190705A1, “Compositions and Methods for Inhibiting BMP” (THE BRIGHAM AND WOMAN'S HOSPITAL, INC., priority 2014, published 2017) are inhibition values, retold here.

Common to all, as to format: biochemical
In one experiment the target is T1, DDR2 (Homo sapiens, UniProt Q16832).
T1 sequence (Q16832 22-855): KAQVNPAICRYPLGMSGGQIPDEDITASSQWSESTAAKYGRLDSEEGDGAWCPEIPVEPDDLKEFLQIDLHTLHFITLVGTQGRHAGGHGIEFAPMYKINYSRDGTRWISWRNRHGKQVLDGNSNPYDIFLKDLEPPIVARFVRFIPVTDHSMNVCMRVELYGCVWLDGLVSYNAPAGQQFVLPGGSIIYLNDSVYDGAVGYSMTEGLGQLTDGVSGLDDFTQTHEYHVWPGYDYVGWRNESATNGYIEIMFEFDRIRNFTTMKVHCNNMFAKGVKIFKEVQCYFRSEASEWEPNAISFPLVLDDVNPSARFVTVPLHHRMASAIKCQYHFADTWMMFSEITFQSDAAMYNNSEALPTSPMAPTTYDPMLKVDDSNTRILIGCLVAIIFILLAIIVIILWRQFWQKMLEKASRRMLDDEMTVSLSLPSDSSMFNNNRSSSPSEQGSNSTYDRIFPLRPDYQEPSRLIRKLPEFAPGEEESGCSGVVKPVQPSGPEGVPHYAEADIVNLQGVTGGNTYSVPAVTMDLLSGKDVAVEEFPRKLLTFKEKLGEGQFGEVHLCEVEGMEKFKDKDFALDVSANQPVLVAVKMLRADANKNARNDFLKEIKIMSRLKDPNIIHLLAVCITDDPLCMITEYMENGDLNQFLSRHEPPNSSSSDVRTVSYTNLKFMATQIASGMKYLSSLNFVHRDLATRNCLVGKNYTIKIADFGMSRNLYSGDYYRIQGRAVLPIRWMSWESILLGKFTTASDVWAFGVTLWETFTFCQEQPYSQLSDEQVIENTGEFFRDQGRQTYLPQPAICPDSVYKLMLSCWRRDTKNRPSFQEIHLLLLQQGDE
As to the kind of experiment: Kinome profiling DDR2. The settings on record: read-out: Inhibitory activity DDR2; for inhibition at 0.1 µM: 100 nM. The protocol:
(§1) . The kinome-wide selectivity was determined following the methods previously reported by Mohedas et al., ACS Chem Biol 2013, 8, 1291-1302 and Sanvitale et al., PLoS One 2013, 8, e62721.

A further experiment has as its target RON (Homo sapiens, UniProt Q04912). As to the kind of experiment: Kinome profiling RON. The settings on record: read-out: Inhibitory activity RON; for inhibition at 0.1 µM: 100 nM. How it is done: as §1
The next experiment concerns the target CHEK2 (Homo sapiens, UniProt O96017). As to the kind of experiment: Kinome profiling CHEK2. The following applies: read-out: Inhibitory activity CHEK2; for inhibition at 0.1 µM: 100 nM. How it is done: as §1
Another experiment has as its target T2, AURORA-C (Homo sapiens, UniProt Q9UQB9).
T2 sequence (Q9UQB9 1-309): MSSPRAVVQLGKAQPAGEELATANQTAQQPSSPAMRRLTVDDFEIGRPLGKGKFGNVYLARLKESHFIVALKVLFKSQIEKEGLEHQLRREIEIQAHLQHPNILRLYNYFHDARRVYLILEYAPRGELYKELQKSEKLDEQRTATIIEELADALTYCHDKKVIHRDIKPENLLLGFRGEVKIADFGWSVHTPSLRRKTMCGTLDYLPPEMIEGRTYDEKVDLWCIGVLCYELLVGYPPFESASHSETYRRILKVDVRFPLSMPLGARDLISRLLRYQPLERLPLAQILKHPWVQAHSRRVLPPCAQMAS
As to the kind of experiment: Kinome profiling AURORA-C. The following applies: read-out: Inhibitory activity AURORA-C; for inhibition at 0.1 µM: 100 nM. The protocol:
as §1

In a further experiment the target is FLT-4 (Homo sapiens, UniProt P35916). As to the kind of experiment: Kinome profiling FLT-4. The following applies: read-out: Inhibitory activity FLT-4; for inhibition at 0.1 µM: 100 nM. The protocol: as §1
Sequence of FLT-4 (P35916 25-1363): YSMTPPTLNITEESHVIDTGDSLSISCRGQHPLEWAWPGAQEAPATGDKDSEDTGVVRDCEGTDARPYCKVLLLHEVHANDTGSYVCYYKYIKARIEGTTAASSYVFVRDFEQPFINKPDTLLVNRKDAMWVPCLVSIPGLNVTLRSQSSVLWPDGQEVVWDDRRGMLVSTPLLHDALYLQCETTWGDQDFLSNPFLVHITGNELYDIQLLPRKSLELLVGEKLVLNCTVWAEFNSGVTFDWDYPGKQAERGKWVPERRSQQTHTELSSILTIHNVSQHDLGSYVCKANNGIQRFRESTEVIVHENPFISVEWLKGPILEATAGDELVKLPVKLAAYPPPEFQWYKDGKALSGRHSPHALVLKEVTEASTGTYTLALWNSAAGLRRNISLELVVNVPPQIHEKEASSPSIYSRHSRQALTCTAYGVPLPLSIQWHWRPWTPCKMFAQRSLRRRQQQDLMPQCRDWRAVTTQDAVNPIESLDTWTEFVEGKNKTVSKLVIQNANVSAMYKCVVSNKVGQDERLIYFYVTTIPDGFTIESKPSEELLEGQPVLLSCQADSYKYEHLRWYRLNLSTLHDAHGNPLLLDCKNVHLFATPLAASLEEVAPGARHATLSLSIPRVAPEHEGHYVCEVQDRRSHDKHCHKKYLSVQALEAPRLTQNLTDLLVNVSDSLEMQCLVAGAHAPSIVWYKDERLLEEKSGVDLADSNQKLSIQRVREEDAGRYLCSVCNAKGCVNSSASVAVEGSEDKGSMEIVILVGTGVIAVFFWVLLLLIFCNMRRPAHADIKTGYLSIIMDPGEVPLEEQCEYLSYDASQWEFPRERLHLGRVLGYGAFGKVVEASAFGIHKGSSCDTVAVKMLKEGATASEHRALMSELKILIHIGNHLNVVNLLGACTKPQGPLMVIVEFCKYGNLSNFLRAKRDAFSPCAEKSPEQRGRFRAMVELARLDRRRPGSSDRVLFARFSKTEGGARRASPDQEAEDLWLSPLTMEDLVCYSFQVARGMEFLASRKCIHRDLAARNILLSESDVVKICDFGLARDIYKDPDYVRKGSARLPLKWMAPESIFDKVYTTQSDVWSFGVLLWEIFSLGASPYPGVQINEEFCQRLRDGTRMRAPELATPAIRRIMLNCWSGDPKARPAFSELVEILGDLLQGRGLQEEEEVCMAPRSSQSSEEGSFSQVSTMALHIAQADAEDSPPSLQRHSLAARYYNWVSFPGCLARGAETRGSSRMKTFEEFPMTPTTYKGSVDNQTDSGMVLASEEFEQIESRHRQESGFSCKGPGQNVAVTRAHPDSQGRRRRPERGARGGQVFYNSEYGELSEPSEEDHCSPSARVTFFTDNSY
A further experiment has as its target PI4-K-β (Homo sapiens, UniProt Q9UBF8). As to the kind of experiment: Kinome profiling PI4-K-β. The settings on record: read-out: Inhibitory activity PI4-K-β; for inhibition at 0.1 µM: 100 nM. How it is done: as §1
Another experiment addresses T3, ZAP70 (Homo sapiens, UniProt P43403).
T3 sequence (P43403 1-619): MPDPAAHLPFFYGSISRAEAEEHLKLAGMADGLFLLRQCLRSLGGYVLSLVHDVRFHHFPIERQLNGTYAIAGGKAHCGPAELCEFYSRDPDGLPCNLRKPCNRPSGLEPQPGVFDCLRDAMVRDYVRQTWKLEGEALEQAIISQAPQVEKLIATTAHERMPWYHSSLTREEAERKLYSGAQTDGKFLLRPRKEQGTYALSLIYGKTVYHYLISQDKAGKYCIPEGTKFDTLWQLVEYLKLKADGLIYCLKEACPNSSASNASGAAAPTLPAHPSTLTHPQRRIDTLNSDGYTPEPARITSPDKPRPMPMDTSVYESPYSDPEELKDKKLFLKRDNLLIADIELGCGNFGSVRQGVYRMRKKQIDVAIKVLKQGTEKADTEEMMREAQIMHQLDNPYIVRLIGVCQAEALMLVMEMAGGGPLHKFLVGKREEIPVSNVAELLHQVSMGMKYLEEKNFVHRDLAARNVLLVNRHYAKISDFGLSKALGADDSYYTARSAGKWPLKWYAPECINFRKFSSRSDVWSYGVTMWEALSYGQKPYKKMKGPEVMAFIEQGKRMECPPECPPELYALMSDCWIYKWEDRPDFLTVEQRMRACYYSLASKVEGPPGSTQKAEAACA
As to the kind of experiment: Kinome profiling ZAP70. The settings on record: read-out: Inhibitory activity ZAP70; for inhibition at 0.1 µM: 100 nM. The protocol: as §1

The target of the next experiment is FGFR4 (Homo sapiens, UniProt P22455). Put plainly: Kinome profiling FGFR4. The settings on record: read-out: Inhibitory activity FGFR4; for inhibition at 0.1 µM: 100 nM. How it is done: as §1
Sequence of FGFR4 (P22455 22-802): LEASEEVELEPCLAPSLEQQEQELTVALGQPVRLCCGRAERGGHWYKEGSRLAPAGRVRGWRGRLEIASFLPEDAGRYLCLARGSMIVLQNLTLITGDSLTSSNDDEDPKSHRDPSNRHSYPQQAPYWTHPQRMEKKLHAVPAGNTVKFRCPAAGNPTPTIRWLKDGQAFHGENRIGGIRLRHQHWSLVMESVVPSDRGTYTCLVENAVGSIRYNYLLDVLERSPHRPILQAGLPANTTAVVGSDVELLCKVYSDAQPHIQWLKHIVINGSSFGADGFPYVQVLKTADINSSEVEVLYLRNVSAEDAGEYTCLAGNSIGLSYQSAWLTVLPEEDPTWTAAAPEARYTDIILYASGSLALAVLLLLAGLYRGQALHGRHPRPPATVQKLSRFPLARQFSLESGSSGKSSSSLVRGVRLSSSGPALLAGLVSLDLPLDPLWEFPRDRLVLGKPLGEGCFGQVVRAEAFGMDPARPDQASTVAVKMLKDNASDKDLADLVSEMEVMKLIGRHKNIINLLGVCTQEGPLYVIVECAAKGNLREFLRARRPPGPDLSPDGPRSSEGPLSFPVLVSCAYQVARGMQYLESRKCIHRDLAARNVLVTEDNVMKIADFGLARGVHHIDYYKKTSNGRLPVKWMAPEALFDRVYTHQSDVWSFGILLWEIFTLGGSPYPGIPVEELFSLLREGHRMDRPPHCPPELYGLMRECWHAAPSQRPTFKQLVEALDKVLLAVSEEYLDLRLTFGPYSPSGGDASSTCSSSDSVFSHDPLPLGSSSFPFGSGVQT

Sequence of PI4-K-β (Q9UBF8 whole entry): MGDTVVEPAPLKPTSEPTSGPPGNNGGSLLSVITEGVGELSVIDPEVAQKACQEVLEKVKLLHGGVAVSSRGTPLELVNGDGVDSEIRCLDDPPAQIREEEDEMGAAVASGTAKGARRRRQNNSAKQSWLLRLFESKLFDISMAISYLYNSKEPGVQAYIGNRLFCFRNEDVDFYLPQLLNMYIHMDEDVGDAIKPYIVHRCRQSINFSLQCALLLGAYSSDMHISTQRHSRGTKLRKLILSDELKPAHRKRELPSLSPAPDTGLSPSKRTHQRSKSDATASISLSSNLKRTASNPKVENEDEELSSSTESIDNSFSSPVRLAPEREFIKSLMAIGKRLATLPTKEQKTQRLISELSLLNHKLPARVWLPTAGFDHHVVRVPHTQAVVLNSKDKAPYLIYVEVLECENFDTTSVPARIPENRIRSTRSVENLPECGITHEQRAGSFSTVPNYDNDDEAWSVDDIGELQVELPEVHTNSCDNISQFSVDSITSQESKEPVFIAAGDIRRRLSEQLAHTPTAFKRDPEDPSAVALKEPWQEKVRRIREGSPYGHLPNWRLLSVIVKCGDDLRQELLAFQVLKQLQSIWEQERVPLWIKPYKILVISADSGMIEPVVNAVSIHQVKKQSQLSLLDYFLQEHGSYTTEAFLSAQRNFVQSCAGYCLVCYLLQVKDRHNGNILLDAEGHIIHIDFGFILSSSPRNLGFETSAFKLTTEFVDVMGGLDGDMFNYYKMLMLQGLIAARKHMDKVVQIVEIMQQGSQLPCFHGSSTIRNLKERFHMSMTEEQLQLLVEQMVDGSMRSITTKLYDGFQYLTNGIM
Sequence of RON (Q04912 25-1400): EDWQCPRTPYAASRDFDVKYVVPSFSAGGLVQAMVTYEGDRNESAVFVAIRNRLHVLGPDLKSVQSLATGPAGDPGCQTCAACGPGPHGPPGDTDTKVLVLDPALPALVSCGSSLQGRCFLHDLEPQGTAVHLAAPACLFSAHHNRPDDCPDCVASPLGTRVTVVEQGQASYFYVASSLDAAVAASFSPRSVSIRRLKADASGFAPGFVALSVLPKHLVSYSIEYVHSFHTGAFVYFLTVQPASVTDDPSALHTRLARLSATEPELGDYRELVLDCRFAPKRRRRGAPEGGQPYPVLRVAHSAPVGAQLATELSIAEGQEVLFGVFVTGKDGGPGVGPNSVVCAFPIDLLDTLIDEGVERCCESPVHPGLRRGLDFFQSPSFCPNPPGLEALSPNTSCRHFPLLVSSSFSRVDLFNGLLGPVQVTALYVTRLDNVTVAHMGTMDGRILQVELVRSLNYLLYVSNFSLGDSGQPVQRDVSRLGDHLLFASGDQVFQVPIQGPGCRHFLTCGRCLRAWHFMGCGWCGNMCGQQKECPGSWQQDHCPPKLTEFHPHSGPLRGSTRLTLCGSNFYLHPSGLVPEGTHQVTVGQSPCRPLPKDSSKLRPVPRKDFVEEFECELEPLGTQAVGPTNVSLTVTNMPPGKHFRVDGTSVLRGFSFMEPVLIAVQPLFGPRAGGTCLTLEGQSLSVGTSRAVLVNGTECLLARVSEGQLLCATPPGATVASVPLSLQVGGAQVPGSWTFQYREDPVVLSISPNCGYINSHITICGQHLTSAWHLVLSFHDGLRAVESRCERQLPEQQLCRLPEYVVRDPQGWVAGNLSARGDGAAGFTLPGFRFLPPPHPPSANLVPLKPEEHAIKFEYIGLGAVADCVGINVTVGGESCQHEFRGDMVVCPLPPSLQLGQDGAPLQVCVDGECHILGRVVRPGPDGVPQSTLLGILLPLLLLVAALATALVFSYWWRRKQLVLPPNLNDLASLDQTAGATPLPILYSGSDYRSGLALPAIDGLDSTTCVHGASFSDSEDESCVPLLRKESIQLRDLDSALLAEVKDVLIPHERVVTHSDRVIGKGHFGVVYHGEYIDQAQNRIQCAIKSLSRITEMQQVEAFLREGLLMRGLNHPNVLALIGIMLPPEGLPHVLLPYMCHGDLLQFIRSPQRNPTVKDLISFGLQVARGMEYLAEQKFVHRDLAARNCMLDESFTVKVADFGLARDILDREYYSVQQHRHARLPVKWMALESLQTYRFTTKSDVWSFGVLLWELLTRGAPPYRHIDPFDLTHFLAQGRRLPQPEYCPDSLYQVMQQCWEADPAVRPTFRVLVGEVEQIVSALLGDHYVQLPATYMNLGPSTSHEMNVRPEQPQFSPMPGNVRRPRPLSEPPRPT
Sequence of CHEK2 (O96017 whole entry): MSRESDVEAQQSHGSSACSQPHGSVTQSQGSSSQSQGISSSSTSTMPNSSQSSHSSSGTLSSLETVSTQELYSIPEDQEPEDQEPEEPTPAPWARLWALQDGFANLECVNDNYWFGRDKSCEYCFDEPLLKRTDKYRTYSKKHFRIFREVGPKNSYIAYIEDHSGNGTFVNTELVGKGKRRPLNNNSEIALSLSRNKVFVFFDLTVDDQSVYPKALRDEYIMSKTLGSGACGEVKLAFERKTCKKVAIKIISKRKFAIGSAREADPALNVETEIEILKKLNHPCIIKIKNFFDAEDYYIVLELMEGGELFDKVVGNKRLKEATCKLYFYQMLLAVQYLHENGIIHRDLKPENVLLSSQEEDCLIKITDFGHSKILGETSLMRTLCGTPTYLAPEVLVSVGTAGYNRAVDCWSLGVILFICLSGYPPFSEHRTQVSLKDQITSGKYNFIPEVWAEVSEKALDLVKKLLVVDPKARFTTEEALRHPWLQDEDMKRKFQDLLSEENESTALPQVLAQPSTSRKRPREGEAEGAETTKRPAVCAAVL

Regarding `COc1cc(-c2cc(-c3ccc(N4CCNCC4)cc3)cnc2N)cc(OC)c1OC` [Compound 15, 5-(4-(piperazin-1-yl)phenyl)-3-(3,4,5-trimethoxyphenyl)pyridin-2-amine], the inhibition at 0.1 µM on DDR2 came out at 32%; on RON, 3%; at CHEK2, 2%; at AURORA-C, 3%; at FLT-4 it was 1%; at PI4-K-β it was 1%. For the same molecule, the inhibition at 0.1 µM at ZAP70 and at FGFR4 was 1% each time. The inhibition at 1 µM was 86% on DDR2; 17% at RON; 7% on CHEK2; 7% on AURORA-C; 4% at FLT-4; 1% on PI4-K-β. The inhibition at 1 µM at ZAP70 was determined as 1%; at FGFR4, 0%.

As to `COc1cc(-c2cc(-c3ccc(N4CCNCC4)cc3)cnc2C)cc(OC)c1OC` [Compound 10, 1-(4-(6-methyl-5-(3,4,5-trimethoxyphenyl)pyridin-3-yl)phenyl)piperazine], the inhibition at 0.1 µM at DDR2 is -1%; at RON, 2%; at CHEK2, 1%; on AURORA-C, 1%; on FLT-4, 3%; at PI4-K-β it was -10%. Further, the inhibition at 0.1 µM came out at 4% at ZAP70 and 1% on FGFR4. The inhibition at 1 µM at DDR2 was 20%; on RON, 6%; on CHEK2, 8%; at AURORA-C, 1%; on FLT-4 it was 9%; on PI4-K-β it was -15%. The inhibition at 1 µM on ZAP70 was determined as 5%; on FGFR4 it was 2%.
